This is an account of results in patent US8901295B2 (Institut National de la Sante et de la Recherche Medicale …, priority 2009, dated 2014).

Read-outs that look alike come from different tables or passages of the source.

One data set has as its target Cyclophilin B (CypB) (Homo sapiens (Human), UniProt P23284). Nature of the data set: Cyclophilin PPIase enzymatic assay (chymotrypsin coupled), CypB. The note with it: for Inhibition (%): activity test at 100 μM on CypB; for IC50: CypB. It counts as biochemical. Here is the method:
(§1) Cyclophilin A, B protein carrying a hexahistidine tag (His-Tag) at the C-terminus, were expressed in Escherichia coli and purified. Briefly, cultures of C41(DE3) cells were grown at 37° C. for ˜1 h until the culture reached an optical density of 0.6 at 600 nm, and induced with 1 mM isopropyl β-D-thiogalactoside for 4 h at 37° C. or overnight at 22° C. for cylophilin A and cyclophilin B, respectively. Cell pellets (1 L) were resuspended in a lysis buffer (20 mM NaH2PO4 (pH 7.8), 300 mM NaCl, 7 mM β-mercaptoethanol, 1 mg/ml lysozyme, 0.1 U/μl Desoxyribonuclease and complete protease inhibitor tablets (Roche)). The sonicated cell lysates were clarified by centrifugation at 10 000 g for 45 min at 4° C., chromatographed on a Ni-NTA column and washed with buffer: (20 mM NaH2PO4 (pH7.8), 300 mM NaCl, 50 mM imidazole, 7 mM β-mercaptoethanol, 10% glycerol). The bound protein was eluted in 1 ml fractions with buffer: (20 mM NaH2PO4 (pH7.8), 300 mM NaCl, 250 mM imidazole, 7 mM β-mercaptoethanol, 10% glycerol) and monitored by the Bradford colorimetric assay. The purity of each cyclophilin was determined by Coomassie-stained SDS-PAGE analysis.
(§2) The reaction was initiated by adding 20 μL of 3.2 mM peptide substrate (Suc-Ala-Ala-cis-Pro-Phe-pNA) in LiCl/TFE solution with rapid inversion. […] The final concentration of LiCl in the assay was 20 mM; TFE was present at a concentration of 4% (v/v). Absorbance readings were collected every 1 s by spectrophotometer. The inhibition assays of compounds were performed in the same manner as mentioned above. A 5 μL aliquot of the compounds in DMSO was added to the cyclophilin solution in the assay buffer. The assay was started by the addition of the substrate. Cyclosporine A was used as control in all measurement. The percentage inhibition of cyclophilin PPiase activity were calculated from slopes and values obtained represent an average of at least two independent measurements.

In the next data set the target is Cyclophilin D (CypD) (Homo sapiens, UniProt P30405, K175I). The data set can be described thus: Cyclophilin PPIase enzymatic assay (chymotrypsin coupled), CypD. It counts as biochemical. Here is the method: The protein was expressed in E. coli strain BL21(DE3). Bacteria were grown in LB medium at 37° C. and induced during 2 h with isopropyl-β-D-thiogalactopyranoside (IPTG) around OD 0.8. Cells were lysed by sonication in a buffer consisting of 50 mM Tris at pH 7.5, 2 mM EDTA and 2 mM β-mercaptoethanol (buffer A). The lysate was centrifuged at 40000 g for 30 min. The supernatant was loaded on a Q-Sepharose and S-Sepharose columns in series equilibrated with buffer A. The S-Sepharose column was washed with equilibrium buffer and bound proteins were eluted with a linear gradient from 0 to 1M NaCl.
as §2

Another data set deals with Cyclophilin A (CypA) (Homo sapiens (Human), UniProt P62937). The data set can be described thus: Cyclophilin PPIase enzymatic assay (chymotrypsin coupled), CypA. It counts as biochemical. To be noted: for IC50: CypA. Here is the method:
as §1, §2

Data set [1] deals with HCV genotype 1b bicistronic replicon in Huh7 cells. The data set can be described thus: Antiviral activity in the replicon model. Format: cell-based. To be noted: Hepatitis C virus, Huh-7, 72 h. Here is the method:
HCV replicon harboring cells were seeded at a low density of 5000 cells per well in 96-well plates. The cells were treated with increasing concentrations of the tested compounds in Dulbecco modified Eagle medium containing 10% fetal bovine serum and 1% DMSO without G418 and cultured for 3 days. Total RNA was extracted using the RNeasy 96 kit (Qiagen). […] HCV RNA levels were measured by means of […]. The results were normalized to GAPDH gene. Each data point represents the average of at least three replicates in cell culture. HCV RNA level reductions after treatment were assessed by comparing the level of HCV RNA in compound-treated cells to that of control cells treated with 1% DMSO.

A short description of the next data set: Acute toxicity in mice. Format: in vivo. To be noted: female mice, 1, 10, 50 and 150 mg/kg, one intraperitonal injection. Here is the method:
The acute toxicity of F684 was evaluated in mice. In this study, female mice (n=3/group) were administered with the negative control (PBS) or F684 (1 mg/kg, 10 mg/kg, 50 mg/kg and 150 mg/kg of body weight dissolved in PBS), one time by intraperitonal injection. At the time of injection, animals were approximately 5 month old and body weights ranged from 27 to 33 g.

Where [2] appears, read: activity test at 100 μM on CypA, read-out: Inhibition (%).
Setting [3] is: HCV genotype 1b replicon, Huh7 cells, 3 days, HCV RNA, read-out: EC50 replicon.

Chain of Cyclophilin A (CypA) (P62937 whole entry): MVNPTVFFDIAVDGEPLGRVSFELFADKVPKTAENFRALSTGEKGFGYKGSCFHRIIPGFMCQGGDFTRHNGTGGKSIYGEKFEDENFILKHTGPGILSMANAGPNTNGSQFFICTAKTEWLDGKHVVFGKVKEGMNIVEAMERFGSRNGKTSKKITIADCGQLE
Chain of Cyclophilin D (CypD) (P30405 30-207 K175I limits assumed): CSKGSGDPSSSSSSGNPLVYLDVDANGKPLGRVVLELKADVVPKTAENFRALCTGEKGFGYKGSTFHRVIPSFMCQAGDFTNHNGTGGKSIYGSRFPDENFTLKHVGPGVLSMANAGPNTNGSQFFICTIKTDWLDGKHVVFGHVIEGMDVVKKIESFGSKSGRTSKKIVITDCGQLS
Chain of Cyclophilin B (CypB) (P23284 34-216): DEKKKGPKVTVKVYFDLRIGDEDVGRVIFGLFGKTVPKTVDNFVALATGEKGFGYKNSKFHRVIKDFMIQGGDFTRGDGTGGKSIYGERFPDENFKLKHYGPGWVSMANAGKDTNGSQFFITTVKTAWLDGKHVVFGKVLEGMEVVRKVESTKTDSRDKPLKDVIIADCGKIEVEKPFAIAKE

Regarding `CCOC(=O)CNC(=O)NCc1ccc(O)c(O)c1` [Compound F548, ethyl 2-(3-(3,4-dihydroxybenzyl)ureido)acetate], the inhibition at 100 µM at Cyclophilin B (CypB) is 20.8%; at Cyclophilin D (CypD) it was 25.5%.

For the compound `CCOC(=O)CNC(=O)NCc1cccc(OC)c1` [Compound F512, ethyl 2-(3-(3-methoxybenzyl)ureido)acetate], the inhibition at 100 µM on Cyclophilin B (CypB) was determined as 16.6%; against Cyclophilin D (CypD) it was 26.5%.

In the case of `COc1ccc(N(C)C(=O)CNC(=O)NCc2ccc(N)cc2)cc1` [Compound F555, 2-(3-(4-aminobenzyl)ureido)-N-4-methoxyphenyl-N-methylacetamide], the inhibition at 100 µM on Cyclophilin A (CypA) (setting [2]) was found to be 65.1%; against Cyclophilin D (CypD), 26.1%.

Take “2-(3-(3-acetamidobenzyl)ureido)acetate [Compound F566]”: the “Inhibition (%)” value at Cyclophilin B (CypB) amounted to 26.5%; on Cyclophilin D (CypD) (activity test at 100 μM on CypD), 22.7%.

As to `CCOC(=O)C1CCCN(C(=O)CNC(=O)NCc2ccc(N)cc2)C1` (stereo not shown) [Compound F545, ethyl 1-(2-(3-(4-aminobenzyl)ureido)acetyl)piperidine-3-carboxylate], at Cyclophilin A (CypA) (setting [2]), the inhibition at 100 µM stood at 49.2%. Further, on Cyclophilin B (CypB), the inhibition at 100 µM came to 65.7% and the IC50 came out at 75.1 µM.

For the compound `CSc1ccccc1C1CCCN1C(=O)C(CC(C)C)NC(=O)NCc1ccc(N)cc1` (stereo not shown) [Compound F712, 1-(4-aminobenzyl)-3-(4-methyl-1-(2-(2-(methylthio)phenyl)pyrrolidin-1-yl)-1-oxopentan-2-yl)urea], the concentration for half-maximal inhibition (IC50) is 3.3 µM against Cyclophilin A (CypA) and 3 µM against Cyclophilin D (CypD).

Consider `COc1ccccc1C1CCCN1C(=O)CNC(=O)NCc1ccc(N)cc1` (stereo not shown) [Compound F609, 1-(4-aminobenzyl)-3-(2-(2-(2-methoxyphenyl)pyrrolidin-1-yl)-2-oxoethyl)urea], for which the inhibition at 100 µM against Cyclophilin A (CypA) worked out at 100%; against Cyclophilin B (CypB) it was 101%. The values for the concentration for half-maximal inhibition (IC50) against Cyclophilin A (CypA), against Cyclophilin B (CypB) and at Cyclophilin D (CypD) were 2.8 µM, 1.2 µM and 11.4 µM, respectively. In addition, in data set [1] (setting [3]), the EC50 turned out to be 20 µM.

`Nc1ccc(CNC(=O)NCC(=O)N2CCCC2)cc1` [Compound F537, 1-(4-aminobenzyl)-3-(2-pyrrolidin-1-yl-2-oxoethyl)urea]: the inhibition at 100 µM was 33.4% against Cyclophilin A (CypA) and 24.5% at Cyclophilin B (CypB).

Turning to `CCOC(=O)C(Cc1cccc(OCc2ccccc2)c1)NC(=O)NCc1ccc(N)cc1` (stereo not shown) [Compound F611, ethyl 2-(3-(4-aminobenzyl)ureido)-3-(3-(benzyloxy)phenyl)propanoate], the inhibition at 100 µM stood at 72.8% on Cyclophilin A (CypA) (setting [2]) and 73.3% against Cyclophilin B (CypB).

`CSc1ccccc1C1CCCN1C(=O)C(C)NC(=O)NCc1ccc(N)cc1` (stereo not shown) [Compound F714, 1-(4-aminobenzyl)-3-(1-(2-(2-(methylthio)phenyl)pyrrolidin-1-yl)-1-oxopropan-2-yl)urea]: the figures for the IC50 at Cyclophilin A (CypA) and on Cyclophilin D (CypD) were 3.1 µM and 1.1 µM, respectively.

Take `Nc1ccc(CNC(=O)NCC(=O)N2CCOC(CN3C(=O)c4ccccc4C3=O)C2)cc1` (stereo not shown) [Compound F554, 1-(4-aminobenzyl)-3-(2-(2-((1,3-dioxoisoindolin-2-yl)methyl)morpholino)-2-oxoethyl)urea]: the inhibition at 100 µM is 67.2% on Cyclophilin A (CypA) (setting [2]), 70.9% against Cyclophilin B (CypB) and 20.9% against Cyclophilin D (CypD). Inhibition against Cyclophilin B (CypB) was half-maximal at 24.6 µM (IC50).

With `Nc1ccc(CNC(=O)NCC(=O)N2CCCC2c2ccccc2Cl)cc1` (stereo not shown) [Compound F673, 1-(4-aminobenzyl)-3-(2-(2-(2-chlorophenyl)pyrrolidin-1-yl)-2-oxoethyl)urea], the results for the half-inhibitory concentration (IC50) at Cyclophilin A (CypA) and against Cyclophilin D (CypD) were 3.4 µM and 6.2 µM, respectively.

Take `Nc1ccc(CNC(=O)NCC(=O)N2CCCC2c2cccc3ccccc23)cc1` (stereo not shown) [Compound F671, 1-(4-aminobenzyl)-3-(2-(2-(naphthalen-1-yl)pyrrolidin-1-yl)-2-oxoethyl)urea]: the figures for the concentration for half-maximal inhibition (IC50) at Cyclophilin A (CypA) and at Cyclophilin D (CypD) were 1.5 µM and 1.4 µM, respectively. Besides, the concentration giving a half-maximal response (EC50) in data set [1] (setting [3]) was 4.3 µM.

In the case of `CCN(O)C(=O)CNC(=O)NCc1ccc(N)nc1` [Compound F606, 2-(3-((6-aminopyridin-3-yl)methyl)ureido)-N-hydroxy-N-ethylacetamide], the figures for the inhibition at 100 µM on Cyclophilin A (CypA) (setting [2]) and against Cyclophilin B (CypB) were 18.9% and 17.3%, respectively.

On to `CN(C(=O)CNC(=O)NCc1ccc(N)cc1)c1ccccc1` [Compound F557, 2-(3-(4-aminobenzyl)ureido)-N-phenyl-N-methylacetamide], for which the inhibition at 100 µM at Cyclophilin A (CypA) (setting [2]) was 63.4%; on Cyclophilin D (CypD), 42.9%.

Regarding `CCOC(=O)CNC(=O)NCc1cccc(F)c1` [Compound F511, ethyl 2-(3-(3-fluorobenzyl)ureido)acetate], the inhibition at 100 µM against Cyclophilin D (CypD) was 12.9%.

Turning to `CCN(OCc1ccccc1)C(=O)CNC(=O)NCc1ccc(N)cc1` [Compound F607], the half-maximal inhibitory concentration (IC50) worked out at 9 µM against Cyclophilin A (CypA); 4.8 µM against Cyclophilin B (CypB); 30 µM at Cyclophilin D (CypD) (CypD, read-out: CypD IC50). The “Inhibition (%)” value on Cyclophilin B (CypB) is 95.3%.

Consider `Nc1ccc(CNC(=O)NCC(=O)N2CCOCC2)cc1` [Compound F544, 1-(4-aminobenzyl)-3-(2-morpholino-2-oxoethyl)urea], for which the inhibition at 100 µM on Cyclophilin A (CypA) (setting [2]) was found to be 12.2%; against Cyclophilin B (CypB), 26%.

Consider `CCOC(=O)CNC(=O)NCC1CCNCC1` [Compound F509, ethyl 2-(3-(piperidin-4-ylmethyl)ureido)acetate], for which the inhibition at 100 µM against Cyclophilin D (CypD) amounted to 18.3%.

As for `CSc1ccccc1C1CCCN1C(=O)CNC(=O)NCc1ccc(N)cc1` (stereo not shown) [Compound F684, 1-(4-aminobenzyl)-3-(2-(2-(2-(methylthio)phenyl)pyrrolidin-1-yl)-2-oxoethyl)urea], the figures for the IC50 at Cyclophilin A (CypA), at Cyclophilin B (CypB) and on Cyclophilin D (CypD) were 0.37 µM, 0.65 µM and 0.64 µM, respectively. Further, in data set [1] (read-out: EC50 replicon (μM)), the concentration giving a half-maximal response (EC50) was determined as 0.8 µM. Besides, in the data set “Acute toxicity in mice”, the acute toxicity result was “not acutely toxic”. Moreover, in the data set “Acute toxicity in mice”, the “body weights, feed consumption, clinical observations or gross organ necropsy vs vehicle control” value is recorded as “No differences”. The survival entry in “Acute toxicity in mice” is given as “All animals survived to scheduled sacrifice”.

Take `Nc1ccc(CNC(=O)NCC(=O)N2CCCCC2)cc1` [Compound F543, 1-(4-aminobenzyl)-3-(2-oxo-2-(piperin-1-yl)ethyl)urea]: the “Inhibition (%)” value on Cyclophilin A (CypA) (activity test at 100 μM on CypA) is reported as 27.7%; at Cyclophilin B (CypB), 37.5%.

For the compound `Nc1ccc(CNC(=O)NCC(=O)NCCc2ccccc2)cc1` [Compound F547, 2-(3-(4-aminobenzyl)ureido)-N-2-phenyl-ethylacetamide], the inhibition at 100 µM came out at 22.5% at Cyclophilin A (CypA) (setting [2]) and 15.2% against Cyclophilin B (CypB).

For the compound `CCOC(=O)CNC(=O)NCc1ccc(OC)cc1` [Compound F429, ethyl 2-(3-(4-methoxybenzyl)ureido)acetate], on Cyclophilin D (CypD), the inhibition at 1000 µM stood at 42.1%.

Turning to `CCOC(=O)CNC(=O)NCc1cccc(N)c1` [Compound F549, ethyl 2-(3-(3-aminobenzyl)ureido)acetate], the figures for the inhibition at 100 µM on Cyclophilin A (CypA) (setting [2]), against Cyclophilin B (CypB) and against Cyclophilin D (CypD) were 14.8%, 48.9% and 24.5%, respectively.

As usually defined, the inhibition is the drop in the measured response relative to a control, in per cent. What is called IC50 is the concentration that inhibits the measured activity by half. A word on the EC50: it is the midpoint of the concentration-response curve.
